Test results published in patent publication US4782176A, “Phenoxycarboxylic acids” (Hoffmann-La Roche Inc., priority 1983, dated 1988).
Where two headings read alike, the source gives them in different places.

What was measured:
[1] = tested on: SRS-A-induced constriction of the guinea pig ileum; test: Guinea Pig Ileum, In Vitro (inhibition of SRS-A-induced constriction); settings: Cavia porcellus; SRS-A (EC50 dose) challenge, 37° C., atropine and pyrilamine present
Description: (a) Guinea Pig Ileum, In Vitro:
The guinea pig ileum bioassay system has been described by Orange and Austen, Adv. Immunol. […] A 1.5 cm segment is removed from animals weighing 300-400 g and suspended in an organ bath containing 10 ml of Tyrodes solution with 10^-6 M atropine sulfate and 10^-6 M pyrilamine maleate. […] The SRS-A utilized in this screen is obtained by challenging chopped lung fragments from actively sensitized guinea pigs with egg albumin, in vitro. A dose-response curve to SRS-A challenge is established for the ileum. […] The drug concentration which inhibits, by 50%, the SRS-A-induced constriction of the guinea pig ileum is determined.

[2] = tested on: leukotriene E4-induced bronchoconstriction; test: Guinea Pig Bronchoconstriction, In Vivo (leukotriene E4 challenge; drug i.v. or oral); settings: for Guinea Pig Bronchoconstriction, In Vivo % I, 10 mg/kg I.V.: leukotriene E4 challenge; for inhibition in vivo at 100 mg/kg: Cavia porcellus, po, 100 mg/kg p.o.
Description: (b) Guinea Pig Bronchoconstriction, In Vivo:
Male guinea pigs (Hostley strain) weighing 300 to 450 grams are anesthetized with urethane (2 g/kg) intraperitoneally and a polyethylene cannula is inserted into the jugular vein for intravenous drug administration. Tracheal pressure is recorded from a cannula inserted in the trachea and connected to a Statham pressure transducer. Respiration is paralyzed with succinyl choline (1.2 mg/kg, i.v.) and the animals are mechanically respirated (Howard rodent respirator) at 40 breaths/minute and 2.5 cc tidal volume. Two minutes thereafter, propanolol (0.1 mg/kg, i.v.) is administered. Five minutes later, the animals are pretreated intravenously for 30 seconds (at 10 mg/kg) with test drug or control vehicle. The animals are subsequently challenged with a maximally constrictory dose of leukotriene E4 also administered intravenously. The change (cm H2 O) between pre and peak ventilatory pressure readings is averaged for three control animals and five drug treated animals. The percent inhibition is calculated from the following formula: (Control-Drug Treated/Control)×100. For determination of oral activity, spontaneously breathing animals are pretreated orally for 2 hours (at 100 mg/kg) prior to challange with leukitriene E4.

[3] = tested on: leukotriene E4-induced bronchoconstriction; test: Guinea Pig Bronchoconstriction, In Vivo (Aerosol)
Description: (c) Guinea Pig Bronchoconstriction, In Vivo (Aerosol):
(§1) Male guinea pigs (Hartley strain) weighing 300 to 500 g are anesthetized with urethane (2 g/kg) intraperitoneally and a polyethylene cannula is inserted into the jugular vein for drug administration. Tracheal pressure is recorded from a cannula inserted in the trachea and connected to a Statham pressure transducer. After surgical preparation of the animals, a period of time is allowed for pulmonary functions to stabilize. The test compound is administered according to the following protocol. Propanolol (0.1 mg/kg) is administered intravenously while the animals breathed spontaneously. Five minutes thereafter, the animals are exposed for a five minute period to a 1% (w/v) aerosol solution of test compound (adjusted to an alkaline pH where necessary for drug solubilization) or to distilled water of the appropriate pH (for control purposes). A Monaghan (Model 750) ultrasonic nebulizer is used to administer all test compounds by inhalation. The nebulizer ultrasonic frequency is adjusted to produce particles in the 1-8μ diameter range (average 3μ). Aqueous solutions are prepared fresh and introduced into the chamber of the nebulizer. The output of the nebulizer is made available to the animal by directing a bias flow of aerosol through a y tube connected to the tracheal cannula. At the end of the exposure period, the animals are paralyzed with succinylcholine (1.2 mg/kg, i.v.) and mechanically respirated (Harvard rodent respirator) at 40 breaths/minute and 2.5 cc tidal volume. Animals are then challenged with a maximum constrictory dose of leukotriene E4 delivered intravenously 30 seconds after administration of the succinylcholine.
(§2) The change (cm H2 O) between pre and peak ventilatory pressure readings is averaged for the three control animals and five drug treated animals. The percent inhibition is calculated from the following formula: [formula] When various drug concentrations are tested, the percent inhibition at each concentration is plotted as log concentration (abscissa) versus percent inhibition (ordinate) and the IC50 is determined from linear regression analysis.

[4] = tested on: leukotriene E4-induced bronchoconstriction; test: Guinea Pig Bronchoconstriction, In Vivo (Aerosol), duration of action; settings: 1% aerosol; time for % inhibition to fall below 40%
Description: as §1, §2
In order to determine the duration of action (doa), the animals are prepared as described above, except that the time between aerosol exposure and challenge with LTE4 is varied. All compounds are administered at a concentration of 1%. Duration of action is calculated from plots of time (abscissa) versus % inhibition (ordinate). The duration of action is defined as the time for the % inhibition to fall below 40%.

LD50 = settings: in vivo, species not given
[5] = 2 hours prior to leukotriene E4 challenge
[6] = time after exposure not given, leukotriene E4 challenge
[7] = determined 30 seconds after exposure to test drug (footnote a)

| Structure (SMILES) | IC50 [1] | Guinea Pig Bronchoconstriction, In Vivo % I, 10 mg/kg I.V. [2] | inhibition in vivo at 100 mg/kg [2, 5] | Guinea Pig Bronchoconstriction, In Vivo Aerosol IC50 (%) [3, 6] | Aerosol Duration of Action [4] | LD50 (LD50; ip, read-out: LD50 i.p.) | LD50 (LD50; po, read-out: LD50 p.o.) | Guinea Pig Bronchoconstriction, In Vivo Aerosol IC50 (%) [3, 7] | oral activity in guinea pig bronchoconstriction (in words) ([2]; oral, 100 mg/kg, 2 hours prior to leukotriene E4 challenge) | Guinea Pig Bronchoconstriction, In Vivo Aerosol IC50 (%) ([3]; determined 15 minutes after exposure to test drug (footnote b)) |
| --- | --- | --- | --- | --- | --- | --- | --- | --- | --- | --- |
| CCCc1c(OCCOCCOc2c(C(C)=O)ccc(OCC(=O)O)c2CCC)ccc(C(C)=O)c1O [[4-acetyl-3-[2-[2-(4-acetyl-3-hydroxy-2-propylphenoxy)ethoxy]ethoxy]-2-propylphenoxy]acetic acid] | 200 nM | 86% | 26% | 0.02% | 14 min | 170 mg/kg | 800 mg/kg |  |  |  |
| CCCc1c(OCCOCCOCCOCCOc2c(C(C)=O)ccc(OCC(=O)O)c2CCC)ccc(C(C)=O)c1O [[4-acetyl-3-[2-[2-[2-[2-(4-acetyl-3-hydroxy-2-propylphenoxy)ethoxy]ethoxy]ethoxy]ethoxy]-2-propylphenoxy]acetic acid] | 300 nM | 90% |  | 0.04% | 73 min |  |  |  |  |  |
| CCCc1c(OCCCOc2c(C(C)=O)ccc(OCC(=O)O)c2CCC)ccc(C(C)=O)c1O [[4-acetyl-3-[3-(4-acetyl-3-hydroxy-2-propylphenoxy)propoxy]-2-propylphenoxy]acetic acid] | 2000 nM | 95% | 52% |  | 90 min | 90 mg/kg | 500 mg/kg | 0.07% |  |  |
| CCCc1c(OCCCOc2c(C(C)=O)ccc(OCCCC(=O)O)c2CCC)ccc(C(C)=O)c1O [4-[4-acetyl-3-[3-(4-acetyl-3-hydroxy-2-propylphenoxy)propoxy]-2-propylphenoxy]butanoic acid] | 200 nM | 97% | 81% |  |  | 650 mg/kg | 770 mg/kg | 0.44% |  |  |
| CCCc1c(OCC(O)COc2ccc3c(=O)cc(C(=O)O)oc3c2CCC)ccc(C(C)=O)c1O (stereo not shown) [7-[3-(4-Acetyl-3-hydroxy-2-propylphenoxy)-2-hydroxypropoxy]-4-oxo-8-propyl-4H-1-benzopyran-2-carboxylic acid, reference compound] |  | 98% |  |  |  |  |  |  | orally inactive |  |
| CCCc1c(OCCCCCOc2c(C(C)=O)ccc(OCCCC(=O)O)c2CCC)ccc(C(C)=O)c1O [4-[4-acetyl-3-[[5-(4-acetyl-3-hydroxy-2-propylphenoxy)pentyl]oxy]-2-propylphenoxy]butanoic acid] | 1000 nM | 92% | 84% | 0.01% | 46 min |  |  |  |  |  |
| CCCc1c(OCCCCCOc2c(C(C)=O)ccc(OCC(=O)O)c2CCC)ccc(C(C)=O)c1O [[4-acetyl-3-[5-(4-acetyl-3-hydroxy-2-propylphenoxy)pentyloxy]-2-propylphenoxy]acetic acid] | 100 nM | 91% | 51% | 0.02% | 55 min | 140 mg/kg | 900 mg/kg |  |  |  |
| CCCc1c(OCC(O)COc2c(C(C)=O)ccc(OCC(=O)O)c2CCC)ccc(C(C)=O)c1O (racemic) [racemic [4-acetyl-3-[3-(4-acetyl-3-hydroxy-2-propylphenoxy)-2-hydroxypropoxy]-2-propylphenoxy]acetic acid] | 1000 nM | 89% | 29% |  | 72 min |  |  |  |  | 0.1% |
| CCCc1c(OCCCOCCCOc2c(C(C)=O)ccc(OCCCC(=O)O)c2CCC)ccc(C(C)=O)c1O [4-[4-Acetyl-3-[3-[3-(4-acetyl-3-hydroxy-2-propylphenoxy)propoxy]propoxy]-2-propylphenoxy]butanoic acid] | 200 nM | 93% | 56% | 0.008% | 37 min |  |  |  |  |  |
| CCCc1c(OCCOCCOCCOc2c(C(C)=O)ccc(OCC(=O)O)c2CCC)ccc(C(C)=O)c1O [[4-acetyl-3-[2-[2-[2-(4-acetyl-3-hydroxy-2-propylphenoxy)ethoxy]ethoxy]ethoxy]-2-propylphenoxy]acetic acid] | 1000 nM | 85% | 4% | 0.04% | 42 min | 120 mg/kg | 650 mg/kg |  |  |  |
